Values quoted from earlier work as cited in US9095555B2, “Cannabinoid formulations” (FULL SPECTRUM LABORATORIES LIMITED, priority 2011, dated 2015).

Legend:
[1] = prolonged contact with air, oxidation to cannabinol (CBN)

SMILES: CCCCCc1cc(O)c2c(c1)OC(C)(C)[C@@H]1CCC(C)=C[C@@H]21 [Dronabinol, Δ^9-tetrahydrocannabinol]
- Onset of therapeutic potency (after oral administration): 0.5 to 1 h
- Amount reaching the blood stream by absorption through the digestive system (oral): 10-20 % of the administered dose
- Peak therapeutic effect lasting (post administration, oral): 2 to 4 h
- Oxidation stability [1]: prone to oxidation
